The text below walks through data of US6338963B1, “Use of carbon monoxide dependent guanylyl cyclase modifiers to stimulate neuritogenesis” (NeoTherapeutics, Inc., priority 1994, dated 2002).

One series concerns rat caudate nuclei. The series can be described thus: GAD activity in rat caudate nuclei damaged by NMDA. In kind it is in vivo. The protocol:
The effect of AIT-082 on in vivo neuroprotection was also assessed by assaying for glutamic acid decarboxylase (GAD) activity.
GAD activity in rat caudate nuclei was damaged in vivo by NMDA. Increasing amounts of NMDA (25-300 nmoles) were unilaterally infused into caudate nuclei of rats. Eight to 10 days after the injections, glutarnic acid decarboxylase (GAD) activity was assayed, as an index of the loss of GABA-ergic neurons. NMDA produced a dose-dependent lesion, which at its maximal extension caused a reduction of GAD activity by 50% in comparison with that of contralateral sham-operated nuclei (control). […] The necrotic areas are in white, whereas the shadow is the surrounding edema GAD activity was evaluated by measuring the ex novo formation of [^3H]GABA from dissected striata exposed to 1 μCi of [^3H]glutamate for 1 hour at 37° C. GABA was assayed by HPLC with fluorescence detection and the [3H]label associated with GABA was measured.

For series [1] the following is noted: 79 different test systems.
Series [2] is described as follows: Brain tissue levels of AIT-082 (HPLC). In kind it is in vivo, C57BL/6 mice. The settings on record: for Level of AIT-082 in brain tissue: 30 mg/kg i.p., 30 minutes after administration, 30 mg/kg.
In the next series the test system is GDNF. The series can be described thus: Two-site ELISA of growth factor protein in rat brain and spinal cord: GDNF. Type of series: in vivo, F344 rats. The protocol:
Adult female F344 rats were given either AIT-082 (doses: 30 mg/kg/day or a higher dose of 30 mg/ml (˜3,000 mg/kg/day); n=6 rats per group) in their drinking water, or water alone, as a vehicle for control. The duration of the study was seven days, at which time the rats were anesthesized and perfused with ice-cold saline. The brains of the rats were rapidly removed. The brains were placed on a chilled glass plate and dissected into the following regions: basal forebrain, frontal cortex, parietal cortex, cerebellum, spinal cord, and hippocampal formation. Tissues were stored at −70° C. until assayed in a specific two-site ELISA for either NGF, BDNF, NT-3, or GNDF.
The results are shown in FIGS. 45 (BDNF), 46 (NT-3), 47 (GDNF) and 48 (NGF). For the results shown in FIGS. 45-48, animals were given only water (VEH, n=6) or water with AIT-082 at either 30 mg/kg/day (n=6) or 30 mg/ml (n=6) for seven days. The levels of each growth factor were determined in the frontal cortex (F. Cor.), parietal cortex (P.Cor.), hippocampal formation (Hipp.), basal forebrain (B.F.), cerebellum (Cer.), or spinal cord (Cord) using a specific two-site ELISA for each growth factor.
Adult female rats were given AIT-082 (30 mg/kg/day) in their drinking water or drinking water alone (n=6 for each group) for seven days prior to receiving a bilateral fimbria fornix transection (FFT).
The results are shown in FIGS. 49 (BDNF), 50 (NT-3), 51 (GDNF) and 52 (NGF). […] Levels of the growth factor were determined in frontal cortex (F.Cor.), parietal cortex (P.Cor.), hippocampal formation (Hipp.), basal forebrain (B.F.), cerebellum (Cer.), or spinal cord (Cord) using a specific two-site ELISA for each growth factor. […]
Results are shown in FIGS. 53 (BDNF), 54 (NT3), 55 (GDNF), and 56 (NGF). […] Levels of each growth factor were determined in frontal cortex (F.Cor.), parietal cortex (P. Cor.), hippocampal formation (Hipp.), basal forebrain (B.F.), cerebellum (Cer.) or spinal cord (Cord) using a specific two-site ELISA.
Background: In an ELISA, binding on a coated surface is turned into a signal by an enzyme label.

The subject of the next series is mice. The series can be described thus: Elevated Plus maze (anxiety). In kind it is in vivo. The source says: A Plus maze was constructed of black plexiglass consisting of two opposite-facing open arms (30×5 cm, L×W) and two opposite facing closed arms (30×5×15 cm, L×W×H). The walls of the closed arms were clear plexiglass and the four arms were connected by a central area 5×5 cm. The entire Plus maze was mounted on a base 38 cm above the floor. Testing consisted of placing the subject at one end of one of the open arms. The time the subject took to leave the start position (the first 10 cm of the open arm) was recorded. The time it took for the subject to enter halfway into one of the closed arms was also recorded. When the subject arrived at the half-way point in the closed arm, the three-minute test session began. During the three-minute test session, the number of times the subject entered the open arms was recorded. An entry was defined as placing at least two paws onto the platform of the open arm.

A further series relates to Swiss Webster mice. In words: T-maze discrimination learning and reversal. In kind it is in vivo. An excerpt: Subjects were also trained in the same T-maze used for the win-shift model discussed above. As in the win-shift method, subjects were shaped and then given a single reference run in which reward was available in both goal boxes. The subject was only allowed to consume the milk reward in the goal box selected. On the next run, the reward and thus the correct response was in the same goal box selected for the reference run and was not alternated. The subject was required to learn that there was no shift in the goal box for the correct response. The subjects were given 10 trials per day and continued until the subject had at least 8 out of 10 correct responses on two consecutive days. The number of days to reach this criteria of performance was recorded. After the subject reached criteria, the goal box for the correct response was reversed. The number of days taken to reach criteria on reversal was recorded.

“And” between values parts separate entries of the source, which are not always exact repeats. Equal entries are not always repeated.

In the case of `O=C(CCn1cnc2c(=O)[nH]cnc21)Nc1ccc(C(=O)O)cc1` [AIT-082, N-4-carboxyphenyl-3-(6-oxohydropurin-9-yl)propanamide], the “GAD activity in damaged striata” value in the series on rat caudate nuclei (daily intraperitoneal injection for seven days, 200 mnoles NMDA) is recorded as “nearly completely preserved GAD activity”. Also, the “loss of GAD activity” value in the series on rat caudate nuclei (local, 300 mnoles AIT-082 coinfused with 200 nmoles NMDA) is recorded as “almost completely prevented the loss of GAD activity”. For the same molecule, in series [1], the “toxicity in standard profile” value was “absence of any toxicity”. For the same molecule, in series [2] (30 minutes after oral administration), the “level detected in brain” value is given as ≤ 3.3 ng/mg brain tissue. Besides, the “Level of AIT-082 in brain tissue” value is 2.8 ng/mg brain tissue and 3.4 ng/mg brain tissue in series [2] (Cortex); 2.3 ng/mg brain tissue and 3.3 ng/mg brain tissue in series [2] (Remainder of brain). The “passage of the blood-brain barrier” value in series [2] (brain tissue after 30 minutes) is “crosses the blood-brain barrier without degradation”. Besides, the GDNF protein levels entry in the series with GDNF (FFT-lesioned rats, 30 mg/kg/day, basal forebrain) is reported as “increased GDNF levels”; in the series on GDNF (aged rats, 30 mg/kg/day 30 days, parietal and frontal cortex), “restored GDNF protein levels to those of young animals”; in the series with GDNF (intact adult rats, 3000 mg/kg/day, basal forebrain and spinal cord), “increased GDNF levels”. Moreover, the “anxiogenic effect in Plus maze” value in the series with mice (0.005 to 0.5 mg/kg) is listed as “not observed”; with mice (30 mg/kg), “slight anxiogenic effect”; in the series on mice (60 mg/kg), “not observed”. Further, the “T-maze Learning, Learning” value with Swiss Webster mice (AIT-082 0.5 mg/kg) is given as 3.0 days to reach criteria; in the series with Swiss Webster mice (AIT-082 30.0 mg/kg), 3.3 days to reach criteria. The “T-maze Learning, Reversal” value in the series on Swiss Webster mice (AIT-082 0.5 mg/kg) is recorded as 3.78 days to reach criteria; in the series with Swiss Webster mice (AIT-082 30.0 mg/kg), 3.5 days to reach criteria.
